Measurements from patent US20110039762A1, “TARGETED ANTIMICROBIAL MOIETIES” (C3 JIAN, INC., priority 2009, published 2011).
Entries after “also recorded” stand apart in the source; their conditions may differ.

Columns and labels:
[1] = tested on: microorganisms (e.g., bacteria, yeasts, fungi); experiment: Targeting peptide binding to target microorganisms (Table 3); conditions: preferably 1x PBS
[2] = tested on: S. epidermidis; experiment: Kill or inhibit growth/proliferation; morphology, biofilm and growth disruption (Tables 5, 6); type: cell-based, Staphylococcus epidermidis; design: key: A: Peptide aggregates; B: Less hyphal formation; Clumps; Diffuse clumps and small polyps; F: Diffuse growth; H: Thin; I: Growth inhibition; Microcolony formation; Rippled; Small polyps; Thick; W: Halo formation on top, microlonies on bottom; further: test concentration or dose not given here
[3] = tested on: MRSA; experiment: as above; type: cell-based, Methicillin-resistant Staphylococcus aureus; design: key: A: Peptide aggregates; B: Less hyphal formation; Clumps; Diffuse clumps and small polyps; F: Diffuse growth; H: Thin; I: Growth inhibition; Microcolony formation; Rippled; Small polyps; Thick; W: Halo formation on top, microlonies on bottom; further: test concentration or dose not given here
[4] = tested on: C. jeikeium; experiment: as above; type: cell-based, Corynebacterium jeikeium; design: key: A: Peptide aggregates; B: Less hyphal formation; Clumps; Diffuse clumps and small polyps; F: Diffuse growth; H: Thin; I: Growth inhibition; Microcolony formation; Rippled; Small polyps; Thick; W: Halo formation on top, microlonies on bottom; further: test concentration or dose not given here
[5] = tested on: microorganisms; experiment: Peptides having multiple activities (targeting/binding, antimicrobial, growth or phenotype altering)
Source text: In certain embodiments, peptides described herein can have multiple activities. Thus for example, a peptide can have both binding/targeting activity and antimicrobial activity. Such peptides can be used, e.g., in a chimeric construct, for any or all of these properties. Thus, for example, a peptide designated “B” in Table 8 can be used as a targeting peptide. If it is also designated G or M it can also be used for antimicrobial activity.

[6] = tested on: S. pneumoniae; experiment: Kill or inhibit growth/proliferation; morphology, biofilm and growth disruption (Tables 5, 6); type: cell-based, Streptococcus pneumoniae; design: key: A: Peptide aggregates; B: Less hyphal formation; Clumps; Diffuse clumps and small polyps; F: Diffuse growth; H: Thin; I: Growth inhibition; Microcolony formation; Rippled; Small polyps; Thick; W: Halo formation on top, microlonies on bottom; further: test concentration or dose not given here
[7] = tested on: M. luteus; experiment: as above; type: cell-based, Micrococcus luteus; design: key: A: Peptide aggregates; B: Less hyphal formation; Clumps; Diffuse clumps and small polyps; F: Diffuse growth; H: Thin; I: Growth inhibition; Microcolony formation; Rippled; Small polyps; Thick; W: Halo formation on top, microlonies on bottom; further: test concentration or dose not given here
[8] = tested on: C. jejuni; experiment: as above; type: cell-based, Campylobacter jejuni; design: key: A: Peptide aggregates; B: Less hyphal formation; Clumps; Diffuse clumps and small polyps; F: Diffuse growth; H: Thin; I: Growth inhibition; Microcolony formation; Rippled; Small polyps; Thick; W: Halo formation on top, microlonies on bottom; further: test concentration or dose not given here
[9] = microorganism the targeting peptide binds, binding in aqueous buffers varied by peptide solubility
[10] = microorganism(s) the targeting peptide binds, binding in aqueous buffers depending on peptide solubility

Substance	Target(s) [1, 9]	Organism, effect [2]	Organism, effect [3]	Organism, effect [4]	Activities [5]	Target(s) [1, 10]	Organism, effect [6]	Organism, effect [7]	Organism, effect [8]
ALDCSEQSVILWYETILDKIVGVIK [PF-028]	S. epidermidis and M. luteus and MRSA	S. epidermidis (M)	MRSA (R)	C. jeikeium (M)	G B	–	–	–	–
PF-011: peptide having multiple activities (chain 1 MFCYYKQHKGDNFSIEEVKNIIADNEMKVN; chain 2 MFCYYKQHKGDNFSIEEVKNIIADNEMKVN; Peptide with targeting and/or antimicrobial activity)	M. luteus; also recorded: E. coli; also recorded: P. aeruginosa; also recorded: S. pneumoniae; also recorded: C. jeikeium	–	MRSA (R)	C. jeikeium (C)	G B	–	–	–	–
PF-032 (RIVVPAHQSNMASTPNLSITP; Peptide with targeting and/or antimicrobial activity)	–	S. epidermidis (S)	–	C. jeikeium (C)	–	–	–	–	–
PF-046: peptide having multiple activities (chain 1 LDFYLTKHLTLML; chain 2 LDFYLTKHLTLML; Peptide with targeting and/or antimicrobial activity)	E. coli; also recorded: E. faecalis; also recorded: C. jeikeium	S. epidermidis (C)	MRSA (R)	C. jeikeium (R)	G B	–	–	–	–
PF-048: peptide having multiple activities (chain 1 LYFAFKKYQERVNQAPNIEY; chain 2 LYFAFKKYQERVNQAPNIEY; Peptide with targeting and/or antimicrobial activity)	S. epidermidis and M. luteus and E. coli and MRSA and C. jeikeium and C. jejuni	S. epidermidis (D)	MRSA (W)	C. jeikeium (S)	G B	–	–	–	–
PF-065: peptide having multiple activities (LEKNTRDNYFIHAIDRIYINTSKGLFPESELVAWG; Peptide with targeting and/or antimicrobial activity)	M. luteus and E. coli and P. aeruginosa and C. albicans and MRSA and S. pneumoniae and C. jeikeium and C. jejuni	S. epidermidis (D)	MRSA (R)	C. jeikeium (A)	G B	–	–	–	–
PF-099: peptide having multiple activities (EIIAYLEGRFANA; Peptide with targeting and/or antimicrobial activity)	–	S. epidermidis (D)	–	C. jeikeium (C)	G B	S. epidermidis; also recorded: M. luteus; also recorded: E. coli; also recorded: C. jeikeium	–	–	–
PF-129: peptide having multiple activities (MKLLARDPWVCAWNDIW; Peptide with targeting and/or antimicrobial activity)	–	S. epidermidis (M)	–	C. jeikeium (R)	G B	S. epidermidis and MRSA and E. faecalis and C. jeikeium and C. jejuni	–	–	–
PF-133: peptide having multiple activities (GDPTAGQKPVECP; Peptide with targeting and/or antimicrobial activity)	–	–	–	C. jeikeium (R)	G B	S. epidermidis; also recorded: C. jeikeium; also recorded: C. jejuni; also recorded: M. smegmatis	–	–	–
PF-135: peptide having multiple activities (PPARPARIPQTPTLHGASLFRQRS; Peptide with targeting and/or antimicrobial activity)	–	–	–	C. jeikeium (R)	G B	S. epidermidis and M. luteus and E. coli and P. aeruginosa and MRSA and C. jeikeium and M. smegmatis	–	–	–
PF-153: peptide having multiple activities (GILARADCSQIA; Peptide with targeting and/or antimicrobial activity)	–	S. epidermidis (M)	–	C. jeikeium (C)	G B	M. luteus and P. mirabilis and E. coli and MRSA	–	–	–
PF-164: peptide having multiple activities (EEVSRALAGIGLGLGCRIG; Peptide with targeting and/or antimicrobial activity)	–	–	–	C. jeikeium (R)	G B	S. epidermidis; also recorded: M. luteus; also recorded: E. coli; also recorded: C. jeikeium	–	–	–
PF-173: peptide having multiple activities (AGRTAIVQGGG; Peptide with targeting and/or antimicrobial activity)	–	S. epidermidis (A)	–	C. jeikeium (D)	G B	S. epidermidis; also recorded: M. luteus; also recorded: P. mirabilis; also recorded: E. coli; also recorded: P. aeruginosa; also recorded: C. albicans; also recorded: C. jeikeium; also recorded: C. jejuni	–	–	–
PF-186: peptide having multiple activities (DADKNLSLERDRFAWRVAAP; Peptide with targeting and/or antimicrobial activity)	–	S. epidermidis (C)	–	C. jeikeium (A)	G B	S. epidermidis and M. luteus and E. coli and P. aeruginosa and MRSA and C. jeikeium	–	–	–
PF-188: peptide having multiple activities (ARTFAGRLGTRYFGGLMRSTKA; Peptide with targeting and/or antimicrobial activity)	–	–	–	C. jeikeium (H)	G B	S. epidermidis and M. luteus and E. coli and C. albicans and MRSA and E. faecalis	–	–	–
PF-190: peptide having multiple activities (HFILRKPLLFMIHSLKTGPLDRF; Peptide with targeting and/or antimicrobial activity)	–	S. epidermidis (C)	–	C. jeikeium (R)	G B	–	–	–	–
PF-191: peptide having multiple activities (QFCNFAWLFLASNNAQVSALA; Peptide with targeting and/or antimicrobial activity)	–	S. epidermidis (A)	MRSA (H)	C. jeikeium (R)	G B	E. coli; also recorded: P. aeruginosa; also recorded: C. jejuni	–	–	–
PF-196: peptide having multiple activities (TTARYIRRQCHTSITPLSQG; Peptide with targeting and/or antimicrobial activity)	–	S. epidermidis (C)	–	C. jeikeium (R)	G B	–	–	–	–
PF-203: peptide having multiple activities (SWKCHHLAI; Peptide with targeting and/or antimicrobial activity)	–	S. epidermidis (A)	–	C. jeikeium (R)	G B	–	–	–	–
PF-208: peptide having multiple activities (DAYHCHLVRSPDAHDLSMRIGFV; Peptide with targeting and/or antimicrobial activity)	–	S. epidermidis (D)	–	C. jeikeium (A)	G B	S. epidermidis and C. albicans and MRSA and S. pneumoniae and E. faecalis and C. jeikeium and C. jejuni	–	–	–
PF-562: peptide having multiple activities (chain 1 TPEQWLERSTVVVTGLLNRK; chain 2 TPEQWLERSTVVVTGLLNRK; Peptide with targeting and/or antimicrobial activity)	–	S. epidermidis (A)	MRSA (M)	–	G B	–	S. pneumoniae (D)	M. luteus (R)	C. jejuni (R)
